Test results as given in US9272054B2, “Agents for the molecular imaging of serine-protease in human pathologies” (Institut National de la Sante et de la Recherche Medicale …, priority 2010, dated 2016).
Square brackets hold non-standard residues; d marks the D form. Peptide text beside a SMILES is read from it. * marks the point of attachment. DOTA = O=C(O)CN1CCN(CC(=O)O)CCN(CC(=O)*)CCN(CC(=O)O)CC1; DTPA = O=C(O)CN(CCN(CC(=O)O)CC(=O)O)CCN(CC(=O)O)CC(=O)*; CH2Cl = ClC*

What was measured:
[1] = tested on: localized lesion / thrombus; conditions: rat
Text: we have used several experimental models of endovascular thrombus formation in rats, which have been already developed for molecular molecular imaging of platelet activation and fibrin formation, including aneurysm of the abdominal aorta {Sarda-Mantel, 2006}, endocarditic vegetations {Rouzet, 2008}. Aneurysm of the aorta was induced by matrix decellularized xenograft in rats {Allaire, 1996}, and endocarditis by left or right ventricle catheterization followed by provoked bacteraemia {Rouzet, 2008} as previously described. These thrombus models were completed by a model of stroke, provoked by cerebral autologous thrombus emboli in rats (reference). […]
Relevant tissues (heart, abdominal aorta, or brain according to the model) were carefully dissected, frozen and cut into transverse sections of 20 μm thickness, which were exposed in a digital radioimager (Instant Imager, Packard, Meriden, USA) for 12 hours. The activity normalized to the region of interest area (mean counts/min/mm^2 corrected for background activity) was determined on autoradiograms. Quantification was performed by calculating the ratio between the activity of the relevant tissue and the activity of a region of interest drawn on either normal myocardium remote from the vegetation in the endocarditis model, supra-renal aorta sample in the AAA model, or the contralateral brain hemisphere in the stroke model. […]

[2] = target: T1, plasmin from human plasma (Homo sapiens, UniProt P00747); test: Determination of plasmin activity with fluorescent substrate Suc-Ala-Phe-Lys-AMC; type: biochemical; conditions: for % of plasmin activity (mean): 10 nM plasmin, 15 min pre-incubation at room temperature, n=4
T1 construct: plasmin from human plasma (calbiochem); purchased calbiochem; host or cells: human plasma
Protocol: Plasmin with or without inhibitors was incubated at room temperature for 15 min. The fluorescent substrate (40 μM) was added just before reading (λ excitation 390 nm, λ emission 460 nm)
10 nM of plasmin from human plasma (calbiochem) was diluted in Tris-HCl buffer pH 7.4 50 mM, NaCl 100 mM and Tween-20 0.01%. The samples were then incubated or not with the different inhibitors (see below) for 15 minutes at room temperature. Then, the fluorescent substrate (Suc-Ala-Phe-Lys-AMC, […]) was added just before reading (λ excitation 390 nm, λ emission 460 nm) on the Fluoroskan Ascent plate reader (Thermo Fisher). The fluorescence intensity was evaluated every 10 minutes for 2 hours at 37° C.—The integration time for each measure was 20 ms.
Each inhibitor was tested in a range of concentrations from 5 nM up to 1000 nM. All the inhibitors were tested in duplicates for each concentration and 4 independent experiments were performed.
Results are presented as % of active plasmin. The differences between the concentrations of each inhibitor were evaluated by paired t-test using StatView software. Statistical significance was accepted when p<0.05.

plasmin = plasmin (Homo sapiens, UniProt P00747); conditions: competitive inhibitor of plasmin; Chi, 1989; cited from earlier work
plasmin, sequence (P00747 581-810 limits assumed, species assumed): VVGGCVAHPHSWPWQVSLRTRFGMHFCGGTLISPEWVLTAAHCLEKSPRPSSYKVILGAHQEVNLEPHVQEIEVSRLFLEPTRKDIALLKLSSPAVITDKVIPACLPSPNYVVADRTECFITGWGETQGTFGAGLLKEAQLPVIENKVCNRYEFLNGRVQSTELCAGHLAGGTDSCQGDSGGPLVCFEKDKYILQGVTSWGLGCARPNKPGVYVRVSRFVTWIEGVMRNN
plasmin, sequence (P00747 97-580 partner limits assumed, species assumed): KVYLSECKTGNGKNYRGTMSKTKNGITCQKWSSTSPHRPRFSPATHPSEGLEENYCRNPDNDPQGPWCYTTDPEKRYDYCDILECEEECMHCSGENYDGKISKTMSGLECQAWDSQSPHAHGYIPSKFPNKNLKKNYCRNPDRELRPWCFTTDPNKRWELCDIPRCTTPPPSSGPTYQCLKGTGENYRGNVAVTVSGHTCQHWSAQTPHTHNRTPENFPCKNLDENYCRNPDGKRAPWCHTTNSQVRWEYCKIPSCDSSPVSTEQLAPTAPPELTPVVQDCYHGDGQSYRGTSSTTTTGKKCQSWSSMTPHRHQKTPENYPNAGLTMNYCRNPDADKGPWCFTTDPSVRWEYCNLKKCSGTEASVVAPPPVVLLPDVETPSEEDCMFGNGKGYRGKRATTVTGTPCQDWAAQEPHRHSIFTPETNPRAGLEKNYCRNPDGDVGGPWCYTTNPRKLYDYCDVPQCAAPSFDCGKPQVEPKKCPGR

T1 sequence (P00747 581-810 limits assumed): as the sequence (P00747 581-810 limits assumed, species assumed) above
T1 sequence (P00747 97-580 partner limits assumed): as the sequence (P00747 97-580 partner limits assumed, species assumed) above

Row | % of plasmin activity (mean) ([2]; inhibitor 5 nM) | % of plasmin activity (mean) ([2]; inhibitor 10 nM) | % of plasmin activity (mean) ([2]; inhibitor 50 nM) | % of plasmin activity (mean) ([2]; inhibitor 100 nM) | % of plasmin activity (mean) ([2]; inhibitor 500 nM) | % of plasmin activity (mean) ([2]; inhibitor 1000 nM) | inhibitory effect on plasmin activity (in words) ([2]; range 5 nM to 1000 nM) | Compound | in vivo uptake by bone marrow [1] | Ki (plasmin)
1 | 83.0% | 79.1% | 68.7% | 54.6% | 34.1% | 12.8% |  | CC(C)[C@@H](NC(=O)CNC(=O)CN1CCN(CC(=O)O)CCN(CC(=O)O)CCN(CC(=O)O)CC1)C(=O)N[C@@H](Cc1ccccc1)C(=O)N[C@@H](CCCCN)C(=O)CCl [PL 701, DOTA-G-dV-F—K-cmk] ({DOTA}-G[dV]FK-CH2Cl) |  | 
2 | 94.9% | 93.6% | 86.1% | 84.1% | 58.4% | 48.4% |  | CC(C)[C@@H](NC(=O)CNC(=O)CN1CCN(CC(=O)O)CCN(CC(=O)O)CCN(CC(=O)O)CC1)C(=O)N[C@@H](Cc1ccccc1)C(=O)N[C@@H](C)C(=O)CCl [PL 703, DOTA-G-dV-F-A-cmk] ({DOTA}-G[dV]FA-CH2Cl) |  | 
3 | 77.1% | 68.3% | 39.1% | 11.9% | 8.0% | 7.8% |  | D-Val-Phe-Lys-COCH2Cl [VFK, reference compound] |  | 
4 | 102.3% | 123.5% | 122.9% | 113.3% | 112.1% | 107.3% | totally abolished | G-dV-F-A-cmk [PL 702] |  | 
5 | 89.8% | 95.6% | 65.7% | 43.1% | 15.8% | 5.8% |  | G-dV-F—K-cmk [PL 700] |  | 

More lines, now with the values behind:

Row | Compound | % of plasmin activity (mean) ([2]; inhibitor 5 nM) | % of plasmin activity (mean) ([2]; inhibitor 10 nM) | % of plasmin activity (mean) ([2]; inhibitor 50 nM) | % of plasmin activity (mean) ([2]; inhibitor 100 nM) | % of plasmin activity (mean) ([2]; inhibitor 500 nM) | % of plasmin activity (mean) ([2]; inhibitor 1000 nM) | inhibitory effect on plasmin activity (in words) ([2]; range 5 nM to 1000 nM) | in vivo uptake by bone marrow [1] | Ki (plasmin)
6 | CC(C)[C@@H](NC(=O)CNC(=O)CN(CCN(CCN(CC(=O)O)CC(=O)O)CC(=O)O)CC(=O)O)C(=O)N[C@@H](Cc1ccccc1)C(=O)N[C@@H](CCCCN)C(=O)CCl [99mTc-DTPA-G-dVFKcmk, metal not drawn] ({DTPA}-G[dV]FK-CH2Cl) |  |  |  |  |  |  |  | high | 
7 | CC(C)[C@@H](NC(=O)CNC(=O)CN(CCN(CCN(CC(=O)O)CC(=O)O)CC(=O)O)CC(=O)O)C(=O)N[C@@H](Cc1ccccc1)C(=O)N[C@@H](CCCCN)C(=O)CCl [PL 704, DTPA-G-dV-F—K-cmk] ({DTPA}-G[dV]FK-CH2Cl) | 56.3% | 46.2% | 27.4% | 16.6% | 4.0% | 1.1% |  |  | 
8 | CC(=O)N[C@@H](CC(C)C)C(=O)N[C@@H](CC(C)C)C(=O)N[C@H](C=O)CCCNC(=N)N [leupeptin, Ac-Leu-Leu-Arg-H] |  |  |  |  |  |  |  |  | ~100 nM
